Measured values taken from ChEMBL document CHEMBL1150343, “Guanidine and 2-aminoimidazoline aromatic derivatives as alpha2-adrenoceptor antagonists. 2. Exploring alkyl linkers for new antidepressants” (J Med Chem, 2008).

What was measured:
[1] = Agonist activity at alpha2 adrenergic receptor in human brain prefrontal cortex tissue by [35S]GTPgamma S binding assay; type: functional, tissue-based
[2] = Agonist activity at alpha2 adrenergic receptor in human brain prefrontal cortex tissue by [35S]GTPgamma S binding assay relative to UK-14304; type: functional
[3] = Displacement of [3H]RX821002 from alpha2 adrenergic receptor in human brain prefrontal cortex tissue by liquid scintillation spectrometry; type: tissue-based
[4] = system: Rattus norvegicus; assay: Increase in extracellular noradrenaline levels in Sprague-Dawley rat brain prefrontal cortex at 10 mg/kg, ip systematically administered by microdialysis by relative to control; type: functional; conditions: route intraperitoneal
[5] = system: Rattus norvegicus; assay: Increase in extracellular noradrenaline levels in Sprague-Dawley rat brain prefrontal cortex at 1 to 100 uM, locally administered by microdialysis by relative to control

Row | Structure (SMILES) | pKi [3] | other results
1 | Cc1ccc(NC2=NCCN2)cc1C.Cl | 7.68 | EC50 [1]: 62.9 µM; Emax [2]: 89%
2 | CCc1ccc(NC2=NCCN2)cc1.Cl | 6.68 | –
3 | Cl.c1ccc(Cc2ccc(NC3=NCCN3)cc2)cc1 | 6.85 | –
4 | c1ccc(Sc2ccc(NC3=NCCN3)cc2)cc1 | 6.62 | –
5 | Cl.N=C(N)Nc1ccccc1 | 6.19 | –
6 | CCc1ccc(NC(=N)N)cc1.Cl | 5.55 | –
7 | CSc1ccc(NC(=N)N)cc1 | 6.4 | –
8 | Cl.c1ccc(NC2=NCCN2)cc1 | 6.48 | –
9 | c1cc2c(cc1NC1=NCCN1)OCO2 | 7.33 | –
10 | c1ccc(Nc2ccc(NC3=NCCN3)cc2)cc1 | 6.56 | –
11 | N=C(N)Nc1ccc2c(c1)Cc1ccc(NC(=N)N)cc1C2 | 7.96 | –
12 | N=C(N)Nc1ccc2c(c1)Cc1cc(NC(=N)N)ccc1-2 | 6.12 | –
13 | Cl.N=C(N)Nc1ccc2c(c1)CCCC2 | 7.11 | Activity [4]: 373%; Emax [5]: 326%
14 | N=C(N)Nc1ccc(Nc2ccccc2)cc1 | 6.83 | –
15 | Cl.N=C(N)Nc1ccc(Cc2ccccc2)cc1 | 6.38 | –
16 | c1cc2c(cc1NC1=NCCN1)OCCO2 | 7.85 | –
17 | Nc1ccc(NC2=NCCN2)cc1 | 6.92 | –
18 | COC1(C2=NCCN2)COc2ccccc2O1 (stereo not given) | 9.04 | Emax [5]: 287%
19 | Cl.c1cc2c(cc1NC1=NCCN1)CCCC2 | 7.33 | EC50 [1]: 1.1 µM; Emax [2]: 100%

Row | Structure (SMILES) | pKi [3] | other results
20 | COc1ccc(NC(=N)N)cc1 | 6.39 | –
21 | Cc1ccc(NC(=N)N)cc1.Cl | 6.53 | –
22 | N=C(N)Nc1ccc(Sc2ccccc2)cc1 | 6.3 | –
23 | N=C(N)Nc1ccc2c(c1)OCCO2 | 8.21 | –
24 | CSc1ccc(NC2=NCCN2)cc1 | 7.07 | –
25 | c1cc2c(cc1NC1=NCCN1)Cc1ccc(NC3=NCCN3)cc1C2 | 7.58 | –
26 | c1cc2c(cc1NC1=NCCN1)Cc1cc(NC3=NCCN3)ccc1-2 | 6.32 | –
27 | Cl.N=C(N)Nc1ccc2c(c1)CCC2 | 6.51 | –
28 | c1cc(NC2=NCCN2)ccc1CCc1ccc(NC2=NCCN2)cc1 | 7.02 | Activity [4]: 156%; Emax [5]: 255%
29 | COc1ccc(NC2=NCCN2)cc1 | 7.77 | –
30 | N=C(N)Nc1ccc2c(c1)OCO2 | 6.4 | –
31 | N=C(N)Nc1ccc(Oc2ccccc2)cc1 | 6.05 | –
32 | Cc1ccc(NC2=NCCN2)cc1.Cl | 7.82 | EC50 [1]: 15.2 µM; Emax [2]: 97%
33 | c1ccc(Oc2ccc(NC3=NCCN3)cc2)cc1 | 6.58 | –
34 | N=C(N)Nc1ccc(N)cc1 | 5.58 | –
35 | Cl.c1cc2c(cc1NC1=NCCN1)CCC2 | 8.26 | EC50 [1]: 4.4 µM; Emax [2]: 98%
36 | c1ccc2c(c1)OCC(C1=NCCN1)O2 (stereo not given) [IDAZOXAN] | – | Emax [5]: 235%
37 | N=C(N)Nc1ccc(CCc2ccc(NC(=N)N)cc2)cc1 | 5.88 | –
